Drawing on PubChem BioAssay (NCI), this text covers TGI and GI50 for 13 compounds.

Several values for one entry are separate records, joined by “and”; a condition that tells them apart may be missing. Identical values can stand only once.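 Tested at 5 concentrations; 48 h exposure; 96-well plates; endpoints linearly interpolated, else capped at highest concentration. GI50 marks 50% less growth. TGI: concentration producing complete growth inhibition.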 Where a SMILES comes first, the peptide text is derived from it. Bridges are numbered along the chain shown (N, C = ends). [ ]: non-standard residue; d: D form. Aib = CC(C)(N)C(=O)O; βAla = NCCC(=O)O A value given as a limit tells only on which side of the number the result lay.

Among the test systems are SN12C renal; NCI/ADR-RES ovarian; SK-OV-3 ovarian; SW-620 colon; HCT-116 colon; ACHN renal; UACC-257 melanoma; SNB-75 CNS; SR leukemia; UACC-62 melanoma; DU-145 prostate; OVCAR-4 ovarian.
Common to all, as to assay: growth of human tumour cells (NCI), 48 h

Take `O=C(Nc1ccc(C(F)(F)F)cc1)NC(F)(F)F`: the TGI in the test on SN12C renal, in the test on NCI/ADR-RES ovarian, in the test with SK-OV-3 ovarian, in the test on SW-620 colon, with HCT-116 colon and in the test on ACHN renal was > 100 µM in each case. For the same compound, the TGI in the test with UACC-257 melanoma, in the test with SNB-75 CNS and in the test with SR leukemia was > 100 µM each time.

For the compound `Cc1[nH]c(=O)nc2nc3cc(Cl)cc(Cl)c3c(NC(C)(CO)CO)c12`, the TGI in the test on SN12C renal, with NCI/ADR-RES ovarian, in the test with SK-OV-3 ovarian, in the test on SW-620 colon, with HCT-116 colon and in the test with ACHN renal was > 100 µM throughout. The TGI is > 100 µM in the test with UACC-257 melanoma; 38.6 µM in the test on SNB-75 CNS; > 100 µM in the test on UACC-62 melanoma; > 100 µM in the test with DU-145 prostate; > 100 µM with OVCAR-4 ovarian.

For the compound `Cc1c(C)c2ccc(OCC(O)COC(C)C)c(C)c2oc1=O` (configuration not stated), the TGI is > 100 µM in the test on NCI/ADR-RES ovarian; > 100 µM in the test with SK-OV-3 ovarian; 93.1 µM with SW-620 colon; 36 µM with HCT-116 colon; > 100 µM with ACHN renal; 43.4 µM with UACC-257 melanoma. The TGI in the test on UACC-62 melanoma was > 100 µM; in the test on DU-145 prostate, > 100 µM; in the test on OVCAR-4 ovarian it was > 10 µM; in the test with SR leukemia it was 87.4 µM.

For the compound `COc1cccc2c1c1ccc3c(c1n2C)C(=O)C=CC3=O`, the TGI in the test with SN12C renal was 41.5 µM; in the test on SK-OV-3 ovarian it was > 100 µM; in the test on SW-620 colon, 24.7 µM; in the test on HCT-116 colon, 27.2 µM; in the test on ACHN renal it was 28.6 µM; in the test with UACC-257 melanoma it was 30.3 µM. Further, the TGI in the test on UACC-62 melanoma was determined as 31.2 µM; with OVCAR-4 ovarian it was 31.8 µM; in the test on SR leukemia it was 6.65 µM.

Turning to `OC1(C(Sc2cc(C(F)(F)F)cc(C(F)(F)F)c2)Sc2cc(C(F)(F)F)cc(C(F)(F)F)c2)C=CCCC1` (configuration not stated), the TGI in the test with SN12C renal worked out at 6.77 µM; in the test on NCI/ADR-RES ovarian, 10.1 µM; with SK-OV-3 ovarian it was 11.3 µM; with SW-620 colon, 7.74 µM; with HCT-116 colon, 6.74 µM; in the test with ACHN renal, 5.77 µM. In addition, the TGI in the test with UACC-257 melanoma stood at 3.56 µM; in the test on SNB-75 CNS it was 10.8 µM; in the test with UACC-62 melanoma it was 7.79 µM; with DU-145 prostate, 8.99 µM; in the test with OVCAR-4 ovarian, 7.06 µM.

For the compound `COc1ccc(CNc2cnc3cc(N)ccc3n2)cc1`, the TGI with SN12C renal, with SW-620 colon, with HCT-116 colon, with ACHN renal, in the test on SNB-75 CNS and with UACC-62 melanoma was > 100 µM in each case. Also, the TGI with OVCAR-4 ovarian and in the test on SR leukemia was > 100 µM in each case.

For `CC1(C)NC(=O)C(NC(=O)C(N)CC(=O)O)CCCCNC(=O)CCNC1=O` (configuration not stated) (H-DK[Aib][βAla]; lactam 2-C; configuration not given here), the TGI in the test on NCI/ADR-RES ovarian, with SK-OV-3 ovarian, in the test with SW-620 colon, in the test with HCT-116 colon, in the test on ACHN renal and in the test with UACC-257 melanoma was > 100 µM each time. For the same compound, the TGI in the test on SNB-75 CNS, in the test on UACC-62 melanoma, in the test with DU-145 prostate and with OVCAR-4 ovarian was > 100 µM in each case.

On to `C=C(C)C12CC3CC(/C(=N/O)C(C1)/C3=N\O)[C@@]2(C)O` (some centres not stated), for which the TGI with SN12C renal, in the test on SK-OV-3 ovarian, in the test on SW-620 colon, with HCT-116 colon, with ACHN renal and in the test with UACC-257 melanoma was > 100 µM each time. Further, the TGI in the test with SNB-75 CNS, in the test with UACC-62 melanoma and with SR leukemia was > 100 µM each time.

Take `COC(=O)[C@]12CC3C=CC1N(C3)C(CBr)c1c2n(S(=O)(=O)c2ccccc2)c2ccccc12` (some centres not stated): the TGI in the test with SN12C renal, in the test with NCI/ADR-RES ovarian, with SK-OV-3 ovarian, with SW-620 colon, with HCT-116 colon and in the test on ACHN renal was > 100 µM throughout. Besides, the TGI with UACC-257 melanoma was > 100 µM; in the test on SNB-75 CNS, 86.2 µM; in the test with UACC-62 melanoma, > 100 µM; in the test on DU-145 prostate, > 100 µM; in the test with OVCAR-4 ovarian, > 100 µM.

Consider `CSc1nc(-c2ccc(Cl)cc2)c(C#N)c(=O)n1C1OC(COC(C)=O)C(OC(C)=O)C(OC(C)=O)C1OC(C)=O` (configuration not stated), for which the TGI is > 100 µM in the test with SN12C renal; 70.3 µM and > 100 µM in the test on SK-OV-3 ovarian; > 100 µM in the test on SW-620 colon; > 100 µM in the test with HCT-116 colon; > 100 µM with ACHN renal; 38.8 µM and > 100 µM in the test with UACC-257 melanoma. In addition, the TGI in the test with SNB-75 CNS was 31.9 µM and > 100 µM; in the test with UACC-62 melanoma, > 100 µM; in the test with OVCAR-4 ovarian, > 100 µM; in the test with SR leukemia, > 100 µM. The GI50 was 25.3 µM and > 100 µM with SK-OV-3 ovarian; 23.1 µM and > 100 µM in the test on HCT-116 colon; 24 µM and > 100 µM in the test on ACHN renal; 14.5 µM and > 100 µM with UACC-257 melanoma; 14.8 µM and > 100 µM in the test with SNB-75 CNS; 30.5 µM and > 100 µM in the test on UACC-62 melanoma. Further, the GI50 in the test with OVCAR-4 ovarian is > 100 µM.

On to `Cc1ccc(C)n1-c1ccccc1C1C=Cn2c(=O)nnc3c(OC(C)C)c(OC(C)C)c(O)c1c32` (configuration not stated), for which the TGI in the test on SN12C renal is > 100 µM; in the test with NCI/ADR-RES ovarian, > 100 µM; with SK-OV-3 ovarian, > 100 µM; in the test on SW-620 colon it was 42.3 µM; with HCT-116 colon, 70.1 µM; with ACHN renal, > 100 µM. The TGI in the test with UACC-257 melanoma, with SNB-75 CNS, in the test on UACC-62 melanoma, with DU-145 prostate and with OVCAR-4 ovarian was > 100 µM each time.

Take `OC12c3ccccc3C1CCCCC2N1CCCC1` (configuration not stated): the TGI in the test on SN12C renal, in the test on SK-OV-3 ovarian, with SW-620 colon, with HCT-116 colon, in the test on ACHN renal and in the test on UACC-257 melanoma was > 100 µM throughout. Also, the TGI in the test on SNB-75 CNS, with UACC-62 melanoma, in the test on OVCAR-4 ovarian and in the test with SR leukemia was > 100 µM in each case.

On to `CC1=C(C#N)C(=C(C#N)C#N)OC1(C)Cc1ccccc1` (configuration not stated), for which the TGI is > 100 µM with SN12C renal; > 100 µM in the test on NCI/ADR-RES ovarian; > 100 µM in the test on SK-OV-3 ovarian; > 100 µM with SW-620 colon; > 100 µM in the test on HCT-116 colon; 32.7 µM in the test with ACHN renal. For the same compound, the TGI was > 100 µM in the test on UACC-257 melanoma; > 100 µM in the test on SNB-75 CNS; 50.4 µM with UACC-62 melanoma; > 100 µM in the test on DU-145 prostate; 60.3 µM with OVCAR-4 ovarian.
